Source: the kinase profiling compilation of Christmann-Franck et al. (2016)

Assays:
Assay in all cases: KINOMEscan competition binding
Conditions in all cases: compound 10.0 µM
[1] = test system: ABL1 (human), P00519 [M351T]
ABL2 (human) = ABL2 (human) (UniProt P42684)
AXL (human) = AXL (human) (UniProt P30530)
BLK (human) = BLK (human) (UniProt P51451)
BMPR1B (human) = BMPR1B (human) (UniProt O00238)
BRSK2 (human) = BRSK2 (human) (UniProt Q8IWQ3)
CDK9 (human) = CDK9 (human) (UniProt P50750)
CIT (human) = CIT (human) (UniProt O14578)
CLK3 (human) = CLK3 (human) (UniProt P49761)
CSNK1G2 (human) = CSNK1G2 (human) (UniProt P78368)
EPHA3 (human) = EPHA3 (human) (UniProt P29320)
ERBB2 (human) = ERBB2 (human) (UniProt P04626)
GAK (human) = GAK (human) (UniProt O14976)
HCK (human) = HCK (human) (UniProt P08631)
INSRR (human) = INSRR (human) (UniProt P14616)
IRAK3 (human) = IRAK3 (human) (UniProt Q9Y616)
MAP2K2 (human) = MAP2K2 (human) (UniProt P36507)
MAP2K2 (human), sequence (P36507 whole entry, looked up): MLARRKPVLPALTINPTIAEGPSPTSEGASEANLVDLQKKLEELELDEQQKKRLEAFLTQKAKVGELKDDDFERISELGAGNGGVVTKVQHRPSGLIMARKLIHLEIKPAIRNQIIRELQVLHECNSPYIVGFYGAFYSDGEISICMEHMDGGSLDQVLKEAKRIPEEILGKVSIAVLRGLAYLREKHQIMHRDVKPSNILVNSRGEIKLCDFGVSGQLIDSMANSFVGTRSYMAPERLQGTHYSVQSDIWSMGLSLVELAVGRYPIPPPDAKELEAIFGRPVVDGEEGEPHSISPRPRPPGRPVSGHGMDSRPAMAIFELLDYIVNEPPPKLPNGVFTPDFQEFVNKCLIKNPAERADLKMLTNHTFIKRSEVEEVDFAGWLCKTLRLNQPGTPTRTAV

MAP4K4 (human) = MAP4K4 (human) (UniProt O95819)
MAP4K5 (human) = MAP4K5 (human) (UniProt Q9Y4K4)
MAPK9 (human) = MAPK9 (human) (UniProt P45984)
MINK1 (human) = MINK1 (human) (UniProt Q8N4C8)
MINK1 (human), sequence (Q8N4C8 whole entry, looked up): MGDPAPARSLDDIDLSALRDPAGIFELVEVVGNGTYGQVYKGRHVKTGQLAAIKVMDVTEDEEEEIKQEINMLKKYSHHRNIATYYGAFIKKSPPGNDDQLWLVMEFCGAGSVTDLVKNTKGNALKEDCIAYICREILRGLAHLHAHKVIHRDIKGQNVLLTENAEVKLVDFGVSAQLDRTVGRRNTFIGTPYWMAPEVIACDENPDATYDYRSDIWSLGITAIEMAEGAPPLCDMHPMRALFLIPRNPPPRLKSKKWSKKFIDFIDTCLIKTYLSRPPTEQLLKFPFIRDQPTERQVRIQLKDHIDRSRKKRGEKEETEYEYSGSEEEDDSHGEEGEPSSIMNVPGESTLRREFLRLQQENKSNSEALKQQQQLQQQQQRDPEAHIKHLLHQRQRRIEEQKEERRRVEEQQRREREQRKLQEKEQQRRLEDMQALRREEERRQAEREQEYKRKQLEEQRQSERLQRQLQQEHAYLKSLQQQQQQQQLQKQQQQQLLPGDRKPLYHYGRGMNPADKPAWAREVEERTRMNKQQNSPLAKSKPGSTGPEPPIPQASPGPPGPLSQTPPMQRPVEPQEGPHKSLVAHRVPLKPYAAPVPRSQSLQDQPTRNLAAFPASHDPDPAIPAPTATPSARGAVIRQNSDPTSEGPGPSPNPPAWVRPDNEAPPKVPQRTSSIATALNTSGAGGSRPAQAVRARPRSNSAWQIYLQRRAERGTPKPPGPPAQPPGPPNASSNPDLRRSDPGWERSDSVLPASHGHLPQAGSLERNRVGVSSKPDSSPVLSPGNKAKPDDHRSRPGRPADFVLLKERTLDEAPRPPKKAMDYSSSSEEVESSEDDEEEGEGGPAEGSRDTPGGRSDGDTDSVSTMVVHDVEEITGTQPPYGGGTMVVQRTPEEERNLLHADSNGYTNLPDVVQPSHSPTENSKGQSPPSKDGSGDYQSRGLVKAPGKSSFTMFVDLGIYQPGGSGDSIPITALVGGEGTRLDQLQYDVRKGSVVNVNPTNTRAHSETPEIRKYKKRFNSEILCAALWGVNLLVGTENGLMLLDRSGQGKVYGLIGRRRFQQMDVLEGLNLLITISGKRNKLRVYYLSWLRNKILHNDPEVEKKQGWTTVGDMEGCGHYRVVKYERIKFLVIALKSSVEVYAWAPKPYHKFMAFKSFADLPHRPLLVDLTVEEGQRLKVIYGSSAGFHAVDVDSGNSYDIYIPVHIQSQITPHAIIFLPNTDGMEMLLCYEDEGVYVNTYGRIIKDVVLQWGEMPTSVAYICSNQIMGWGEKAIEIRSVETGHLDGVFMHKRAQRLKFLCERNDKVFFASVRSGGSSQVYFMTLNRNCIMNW

MYLK4 (human) = MYLK4 (human) (UniProt Q86YV6)
NTRK3 (human) = NTRK3 (human) (UniProt Q16288)
PAK7 (human) = PAK7 (human) (UniProt Q9P286)
PKN1 (human) = PKN1 (human) (UniProt Q16512)
PKN1 (human), sequence (Q16512 whole entry, looked up): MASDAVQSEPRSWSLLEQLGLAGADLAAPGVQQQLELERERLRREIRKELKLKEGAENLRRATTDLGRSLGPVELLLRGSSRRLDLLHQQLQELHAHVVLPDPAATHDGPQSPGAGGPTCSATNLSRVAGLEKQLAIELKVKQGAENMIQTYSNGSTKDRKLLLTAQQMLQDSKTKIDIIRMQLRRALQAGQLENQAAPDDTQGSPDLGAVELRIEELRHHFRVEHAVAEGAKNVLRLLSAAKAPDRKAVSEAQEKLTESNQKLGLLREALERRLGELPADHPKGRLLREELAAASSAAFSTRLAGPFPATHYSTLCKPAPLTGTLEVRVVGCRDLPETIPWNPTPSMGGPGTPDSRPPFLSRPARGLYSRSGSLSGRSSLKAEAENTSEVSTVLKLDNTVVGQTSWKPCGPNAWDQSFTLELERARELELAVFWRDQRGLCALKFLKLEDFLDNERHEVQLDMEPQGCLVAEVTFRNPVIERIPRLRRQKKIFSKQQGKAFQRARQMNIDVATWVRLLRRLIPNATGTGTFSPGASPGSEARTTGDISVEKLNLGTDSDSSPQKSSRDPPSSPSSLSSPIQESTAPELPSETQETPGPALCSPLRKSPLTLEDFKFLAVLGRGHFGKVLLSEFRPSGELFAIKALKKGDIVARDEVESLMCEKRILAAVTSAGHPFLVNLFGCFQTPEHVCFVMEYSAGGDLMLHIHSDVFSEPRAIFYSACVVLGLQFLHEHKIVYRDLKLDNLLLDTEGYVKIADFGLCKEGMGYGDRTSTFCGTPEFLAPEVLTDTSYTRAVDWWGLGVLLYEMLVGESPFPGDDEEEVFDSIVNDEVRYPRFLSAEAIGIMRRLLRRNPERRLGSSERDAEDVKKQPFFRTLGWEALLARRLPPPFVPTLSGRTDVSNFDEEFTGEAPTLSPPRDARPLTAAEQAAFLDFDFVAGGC

PRKCE (human) = PRKCE (human) (UniProt Q02156)
PRKCQ (human) = PRKCQ (human) (UniProt Q04759)
PRKD3 (human) = PRKD3 (human) (UniProt O94806)
PRKD3 (human), sequence (O94806 whole entry, looked up): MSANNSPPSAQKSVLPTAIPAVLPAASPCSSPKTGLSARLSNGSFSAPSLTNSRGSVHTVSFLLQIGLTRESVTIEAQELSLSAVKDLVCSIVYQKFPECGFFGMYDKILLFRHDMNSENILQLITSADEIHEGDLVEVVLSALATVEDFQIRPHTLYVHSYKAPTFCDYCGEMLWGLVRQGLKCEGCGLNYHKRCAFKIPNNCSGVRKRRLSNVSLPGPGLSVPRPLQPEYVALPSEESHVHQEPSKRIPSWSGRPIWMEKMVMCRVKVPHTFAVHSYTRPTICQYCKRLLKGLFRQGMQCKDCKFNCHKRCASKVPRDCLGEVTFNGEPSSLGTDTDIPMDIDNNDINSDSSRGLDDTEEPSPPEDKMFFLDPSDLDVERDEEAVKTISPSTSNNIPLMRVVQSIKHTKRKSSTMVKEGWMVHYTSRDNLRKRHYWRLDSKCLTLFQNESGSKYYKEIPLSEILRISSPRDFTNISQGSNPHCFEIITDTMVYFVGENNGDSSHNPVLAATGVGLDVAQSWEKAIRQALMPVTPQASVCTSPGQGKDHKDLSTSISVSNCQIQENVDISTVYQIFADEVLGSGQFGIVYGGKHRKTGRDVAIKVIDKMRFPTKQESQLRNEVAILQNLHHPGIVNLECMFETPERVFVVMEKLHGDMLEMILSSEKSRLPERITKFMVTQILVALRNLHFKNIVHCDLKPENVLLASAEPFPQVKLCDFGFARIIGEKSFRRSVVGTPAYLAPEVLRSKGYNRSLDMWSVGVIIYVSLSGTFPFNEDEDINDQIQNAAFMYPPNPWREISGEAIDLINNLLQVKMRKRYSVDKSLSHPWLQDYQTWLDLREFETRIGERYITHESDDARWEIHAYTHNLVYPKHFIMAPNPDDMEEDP

PRKG2 (human) = PRKG2 (human) (UniProt Q13237)
PRKX (human) = PRKX (human) (UniProt P51817)
RPS6KA3 KD1 (human) = RPS6KA3 KD1 (human) (UniProt P51812)
SRC (human) = SRC (human) (UniProt P12931)
SRMS (human) = SRMS (human) (UniProt Q9H3Y6)
SRMS (human), sequence (Q9H3Y6 whole entry, looked up): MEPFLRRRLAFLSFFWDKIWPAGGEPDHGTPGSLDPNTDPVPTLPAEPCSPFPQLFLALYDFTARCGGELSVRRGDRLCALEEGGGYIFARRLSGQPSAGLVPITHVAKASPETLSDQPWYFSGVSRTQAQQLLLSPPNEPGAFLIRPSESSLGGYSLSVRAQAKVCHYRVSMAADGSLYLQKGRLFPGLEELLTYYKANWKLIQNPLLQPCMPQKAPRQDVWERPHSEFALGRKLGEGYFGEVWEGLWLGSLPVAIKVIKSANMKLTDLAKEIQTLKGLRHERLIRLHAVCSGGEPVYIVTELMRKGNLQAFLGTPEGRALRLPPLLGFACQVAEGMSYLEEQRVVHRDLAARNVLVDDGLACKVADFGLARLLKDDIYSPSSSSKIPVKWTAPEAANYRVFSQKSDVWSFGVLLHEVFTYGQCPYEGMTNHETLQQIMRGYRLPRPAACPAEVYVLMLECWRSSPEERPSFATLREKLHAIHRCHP

SRPK2 (human) = SRPK2 (human) (UniProt P78362)
STK17B (human) = STK17B (human) (UniProt O94768)
STK24 (human) = STK24 (human) (UniProt Q9Y6E0)
STK24 (human), sequence (Q9Y6E0 whole entry, looked up): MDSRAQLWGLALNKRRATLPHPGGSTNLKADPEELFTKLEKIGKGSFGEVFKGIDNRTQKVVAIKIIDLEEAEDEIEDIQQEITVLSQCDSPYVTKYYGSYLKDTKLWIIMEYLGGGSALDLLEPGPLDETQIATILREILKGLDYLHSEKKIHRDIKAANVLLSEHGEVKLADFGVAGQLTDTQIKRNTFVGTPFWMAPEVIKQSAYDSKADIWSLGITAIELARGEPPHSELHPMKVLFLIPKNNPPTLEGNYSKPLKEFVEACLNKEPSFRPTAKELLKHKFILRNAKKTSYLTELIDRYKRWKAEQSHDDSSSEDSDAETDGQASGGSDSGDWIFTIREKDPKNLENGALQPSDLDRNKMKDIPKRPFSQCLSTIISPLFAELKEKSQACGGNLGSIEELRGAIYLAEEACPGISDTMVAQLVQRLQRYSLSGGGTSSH

STK33 (human) = STK33 (human) (UniProt Q9BYT3)
STK33 (human), sequence (Q9BYT3 whole entry, looked up): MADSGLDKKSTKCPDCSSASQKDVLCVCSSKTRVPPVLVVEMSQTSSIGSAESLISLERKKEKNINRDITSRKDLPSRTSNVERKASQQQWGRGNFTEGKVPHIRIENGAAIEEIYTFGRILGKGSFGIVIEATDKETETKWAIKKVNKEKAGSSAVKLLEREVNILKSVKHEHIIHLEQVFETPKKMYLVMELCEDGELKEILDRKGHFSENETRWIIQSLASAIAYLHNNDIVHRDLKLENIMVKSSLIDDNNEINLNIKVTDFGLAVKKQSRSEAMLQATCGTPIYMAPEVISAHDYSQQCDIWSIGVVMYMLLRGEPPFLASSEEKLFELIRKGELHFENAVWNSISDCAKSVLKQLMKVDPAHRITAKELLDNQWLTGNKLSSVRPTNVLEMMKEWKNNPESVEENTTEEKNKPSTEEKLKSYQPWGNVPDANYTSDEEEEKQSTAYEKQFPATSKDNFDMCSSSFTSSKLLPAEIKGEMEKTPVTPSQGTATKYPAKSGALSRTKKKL

TEC (human) = TEC (human) (UniProt P42680)
WEE2 (human) = WEE2 (human) (UniProt P0C1S8)
YES1 (human) = YES1 (human) (UniProt P07947)

Compound	kinase still bound, per cent of control [1] [%]	kinase still bound, per cent of control (ABL2 (human)) [%]	kinase still bound, per cent of control (AXL (human)) [%]	kinase still bound, per cent of control (BLK (human)) [%]	kinase still bound, per cent of control (BMPR1B (human)) [%]	kinase still bound, per cent of control (BRSK2 (human)) [%]	kinase still bound, per cent of control (CDK9 (human)) [%]	kinase still bound, per cent of control (CIT (human)) [%]	kinase still bound, per cent of control (CLK3 (human)) [%]	kinase still bound, per cent of control (CSNK1G2 (human)) [%]	kinase still bound, per cent of control (EPHA3 (human)) [%]	kinase still bound, per cent of control (ERBB2 (human)) [%]	kinase still bound, per cent of control (GAK (human)) [%]	kinase still bound, per cent of control (HCK (human)) [%]	kinase still bound, per cent of control (INSRR (human)) [%]	kinase still bound, per cent of control (IRAK3 (human)) [%]	kinase still bound, per cent of control (MAP2K2 (human)) [%]	kinase still bound, per cent of control (MAP4K4 (human)) [%]	kinase still bound, per cent of control (MAP4K5 (human)) [%]	kinase still bound, per cent of control (MAPK9 (human)) [%]	other results
Cc1ccc(C(=O)Nc2cccc(C(F)(F)F)c2)cc1Nc1cncc(C(N)=O)c1	27	21	100	100	100	100	100	100	100	100	8.8	100	100	100	100	100	100	100	100	100	kinase still bound, per cent of control (MINK1 (human)): 100%; kinase still bound, per cent of control (MYLK4 (human)): 100%; kinase still bound, per cent of control (NTRK3 (human)): 15%; kinase still bound, per cent of control (PAK7 (human)): 100%; kinase still bound, per cent of control (PKN1 (human)): 100%; kinase still bound, per cent of control (PRKCE (human)): 100%; kinase still bound, per cent of control (PRKCQ (human)): 100%; kinase still bound, per cent of control (PRKD3 (human)): 100%; kinase still bound, per cent of control (PRKG2 (human)): 100%; kinase still bound, per cent of control (PRKX (human)): 100%; kinase still bound, per cent of control (RPS6KA3 KD1 (human)): 100%; kinase still bound, per cent of control (SRC (human)): 100%; kinase still bound, per cent of control (SRMS (human)): 100%; kinase still bound, per cent of control (SRPK2 (human)): 100%; kinase still bound, per cent of control (STK17B (human)): 100%; kinase still bound, per cent of control (STK24 (human)): 100%; kinase still bound, per cent of control (STK33 (human)): 100%; kinase still bound, per cent of control (TEC (human)): 100%; kinase still bound, per cent of control (WEE2 (human)): 100%; kinase still bound, per cent of control (YES1 (human)): 100%
CCN1CCN(Cc2ccc(Nc3ncc4c(n3)N(C)c3ccccc3C(=O)N4C)cc2C(F)(F)F)CC1	0.65	3	11	8.3	53	42	100	99	92	8.9	100	100	12	24	100	69	89	81	35	57	kinase still bound, per cent of control (MINK1 (human)): 68%; kinase still bound, per cent of control (MYLK4 (human)): 99%; kinase still bound, per cent of control (NTRK3 (human)): 100%; kinase still bound, per cent of control (PAK7 (human)): 81%; kinase still bound, per cent of control (PKN1 (human)): 76%; kinase still bound, per cent of control (PRKCE (human)): 81%; kinase still bound, per cent of control (PRKCQ (human)): 100%; kinase still bound, per cent of control (PRKD3 (human)): 8%; kinase still bound, per cent of control (PRKG2 (human)): 86%; kinase still bound, per cent of control (PRKX (human)): 100%; kinase still bound, per cent of control (RPS6KA3 KD1 (human)): 28%; kinase still bound, per cent of control (SRC (human)): 2%; kinase still bound, per cent of control (SRMS (human)): 54%; kinase still bound, per cent of control (SRPK2 (human)): 81%; kinase still bound, per cent of control (STK17B (human)): 100%; kinase still bound, per cent of control (STK24 (human)): 35%; kinase still bound, per cent of control (STK33 (human)): 36%; kinase still bound, per cent of control (TEC (human)): 99%; kinase still bound, per cent of control (WEE2 (human)): 64%; kinase still bound, per cent of control (YES1 (human)): 6.6%
C=CC(=O)Nc1cccc(Oc2nc(Nc3ccc(N4CCN(C)CC4)cc3OC)ncc2Cl)c1	100	100	100	0.75	100	100	100	100	100	100	100	1.8	0.45	100	13	34	100	100	100	100	kinase still bound, per cent of control (MINK1 (human)): 100%; kinase still bound, per cent of control (MYLK4 (human)): 24%; kinase still bound, per cent of control (NTRK3 (human)): 100%; kinase still bound, per cent of control (PAK7 (human)): 100%; kinase still bound, per cent of control (PKN1 (human)): 100%; kinase still bound, per cent of control (PRKCE (human)): 100%; kinase still bound, per cent of control (PRKCQ (human)): 100%; kinase still bound, per cent of control (PRKD3 (human)): 10%; kinase still bound, per cent of control (PRKG2 (human)): 100%; kinase still bound, per cent of control (PRKX (human)): 100%; kinase still bound, per cent of control (RPS6KA3 KD1 (human)): 100%; kinase still bound, per cent of control (SRC (human)): 100%; kinase still bound, per cent of control (SRMS (human)): 100%; kinase still bound, per cent of control (SRPK2 (human)): 100%; kinase still bound, per cent of control (STK17B (human)): 100%; kinase still bound, per cent of control (STK24 (human)): 100%; kinase still bound, per cent of control (STK33 (human)): 1.3%; kinase still bound, per cent of control (TEC (human)): 6.6%; kinase still bound, per cent of control (WEE2 (human)): 100%; kinase still bound, per cent of control (YES1 (human)): 100%
